Reference: patent US20080039515A1, “Arylpyrazoles And Methods Of Using Same For Control Of Insect Pests That Bore Into Trees” (The Texas A&M University System, priority 2004, published 2008)
Like-named read-outs stand apart in the source and are kept apart here.

Tests used:
[1] = test system: Cerambycid; format: in vivo, cerambycids; details: for Number of Attacks/0.3 m bole section at 3 m after 24 days: Cerambycid: 576 h
Protocol: After 5 weeks post-injection (May 28), frills were cut with a hatchet into the sapwood between the injection points near the base of the tree. A cellulose. sponge was inserted into each cut and loaded with I0 ml of a 4:1 mix of sodium N-methyldithiocarbamate (MS) (Woodfume®; Osmose, Inc., Buffalo, N.Y.) plus dimethyl sulfoxide (DMSO) (Aldrich Chemical) (Roton 1987, Strom et al. 2004). This method reduces resin to near zero in 1-2 weeks. The intent was to stress the tree and make it susceptible to attack by bark beetles without killing it. Pheromone packets containing racemic ipsdienol+lanerione, ipsenol or cis-verbenol were attached (June 7) atop 3 m stakes evenly spaced in between and around the study trees to encourage attack by the three Ips engraver species. […] Thus, ipsdienol and cis-verbenol pheromone baits were deployed on all stakes on June 17th. The baits were changed every 4 weeks.
Trial 2. Three weeks after pheromone deployment (June 28), each tree was evaluated by marking a 30 cm (1 ft) section of bole at a height of 3 m (10 ft). All visible Ips attacks and cerambycid egg niches were counted within the marked area. The number of trees with fading crowns also was recorded. Thereafter, the trees were evaluated weekly for crown fading. When mortality did occur, the trees were felled and two bolts taken and evaluated for attack success and gallery length as described in Trial 1. All remaining trees were felled 66 days (Aug. 9) after initial pheromone deployment when no additional trees had died for 2 weeks. Treatment efficacy was determined by comparing tree survival, beetle attacks and egg gallery length on treated and untreated bolts. As before, data were transformed and analyzed by GLM and the Fisher's Protected LSD test using the Statview statistical program.

[2] = test system: cerambycid larvae; format: in vivo, cerambycids; details: for reduction of cerambycid larval feeding damage: May
Protocol: Study Sites: Two 20-year-old, recently thinned loblolly pine plantations were selected in Texas. Trees in one plantation were injected for use in a bolt study (Trial 1). Trees in ½ acre section of the second plantation were injected as part of a single-tree protection study (Trial 2). A staging area also was set up in the second plantation where bolts from the first plantation were exposed to bark beetles and wood borers.
After 1 (May 24), 3 (July 19) and 5 (September) months post-injection, 5 trees of each treatment were felled and two 1.5 m long bolts were removed from the 3 m and 8 m heights of the bole. Because southern pine beetle (SPB) populations were extremely low in east Texas during the study year, Ips engravers were used as alternative bark beetles for this study. The bolts were transported to a 20-year-old loblolly plantation that was recently thinned and contained fresh slash material. Each bolt was placed about 1 m apart on discarded, dry pine bolts to maximize surface area available for colonization as well as to discourage predation by ground and litter-inhabiting organisms. To facilitate timely bark beetle colonization, packets of bark beetle pheromones (racemic ipsdienol +lanerione combination, ipsenol or cis-verbenol; Phero Tech, Inc., Delta, BC, Canada) were attached separately to three 1 m stakes evenly spaced in the study area. Racemic ipsdienol and cis-verbenol were used with the second series of bolts deployed in July. The packets were removed after 2 weeks when signs of attacks (boring dust) were observed on most test bolts, signaling that naturally-produced pheromones were present.
Treatment Evaluation: Trial 1. The first and second series of bolts were retrieved 2.5 and 3 weeks, respectively, after deployment, after observing many cerambycid attacks on most of the bolts. In the laboratory, two 10×50 cm strips (total=1000 cm^2) of bark were removed from each bolt. Several measurements were made relating to construction of nuptial chambers and egg galleries and development of brood: • 1. Number of unsuccessful attacks—penetration to phloem, but no egg galleries. • 2. Number of successful attacks—construction of nuptial chamber and at least one egg gallery extending from it. • 3. Number and lengths of egg galleries with brood galleries radiating from them. • 4. Number and lengths of egg galleries without brood galleries. • 5. Cerambycid activity, estimated by overlaying a 100 cm^2 grid over a portion of each bark strip and counting the number of squares overlapping area where cerambycids had fed.
Treatment efficacy was determined by comparing Ips beetle attacks and egg gallery length and cerambycid feeding on treated and untreated bolts. The data were transformed by log10(x+1) to satisfy criteria for normality and homoscedasticity (Zar 1984) and analyzed by GLM and the Fishers Protected LSD test using the Statview statistical program.

Row | Structure (SMILES) | Number of Attacks/0.3 m bole section at 3 m after 24 days: Cerambycid [1] | reduction of cerambycid larval feeding damage ([2]; bolts from 3 m) | reduction of cerambycid larval feeding damage ([2]; bolts from 8 m) | Borer Feeding Area (% of Total Area) [1] | phloem area fed upon by cerambycid larvae ([2]; July, bolts from 3 m)
1 | O=[N+]([O-])NC1=NCCN1Cc1ccc(Cl)nc1 [Imid] | 4.7 a | 61% | 98% | – | –
2 | N#Cc1nn(-c2c(Cl)cc(C(F)(F)F)cc2Cl)c(N)c1[S+]([O-])C(F)(F)F (centres unmarked) [Fip, 5-amino-3-cyano-1-(2,6-dichloro-4-trifluoromethylphenyl)-4-trifluoromethylsulfinylpyrazole] | 1.3 a | 82% | 55% | 0.0 % of Total Area | 2%
